Laboratory results reported in patent US20240116918A1, “SUBSTITUTED TRICYCLIC COMPOUND AS PRMT5 INHIBITOR AND USE THEREOF” (NANJING SANHOME PHARMACEUTICAL CO., LTD., priority 2019, published 2024).
pIC50: −log10 of the molar value.

Tested on: NCI-H358 cells
Assay: In vitro cell activity, NCI-H358 cells, CCK-8
Type: cell-based
Conditions: NCI-H358, 168 h, human non-small cell lung cancer cells, 7 days
Procedure: Test compounds: the compounds of the present invention prepared in the above example. Each compound was formulated into a 10 mM stock solution with DMSO, and finally diluted into 8 concentrations for detection, with the final concentrations being 33333.00 nM, 6666.60 nM, 1333.32 nM, 266.66 nM, 53.33 nM, 10.67 nM, 2.13 nM, and 0.43 nM for experiments in Z-138 cells.
2.1.3 NCI-H358 cell thawing: The cryovial for NCI-H358 cells was taken out from a liquid nitrogen tank and placed in a 37° C. water bath, and shaken gently for thawing as soon as possible. After thawing, the cryovial was taken out, and sterilized with an alcohol cotton ball, after which the cap was unscrewed. The cell fluid was drawn and injected into a centrifuge tube. 1 mL of 1640 medium containing 10% FBS was added, and mixed uniformly. The tube was placed in a centrifuge, and centrifuged at 1000 rpm for 5 min. Afterwards, the supernatant was discarded, and complete medium was added. The mixture was pipetted repeatedly until the cells were completely dispersed and resuspended. The mixture was inoculated in a petri dish at an appropriate concentration, and cultured in a CO2 incubator at 37° C., 5% CO2, and 95% humidified air.
2.2.3 NCI-H358 cell culture and passage: The cells grew to about 80-90%. The medium (1640 medium+10% FBS+1% penicillin-streptomycin+1 mM sodium pyruvate) was transferred to a 15 mL centrifuge tube, and centrifuged at 1000 rpm for 5 min. The supernatant was removed. The cells were resuspended in complete medium, and inoculated in a petri dish at the desired density. The dish was placed in a CO2 incubator at 37° C., 5% CO2, and 95% humid air. The culture medium was changed every 2-3 days or the passage was carried out, depending on the cell growth.
After passage, NCI-H358 cells were resuspended in complete medium at the corresponding density, 1000 cells/well, and inoculated in a 96-well culture plate. The wells at the outer circumference were filled with 200 μL PBS to prevent the culture conditions of the inside plate wells from being too different from each other due to the faster evaporation of medium at the edge. The leftmost column of the 60 inner wells were blank wells, which were not added with cells, but filled with equal volume of PBS. The remaining 54 wells were subjected to cell plating with a multichannel pipette, to each well was added 100 μL. […]
The first column of PBS was used as a blank control well, and 100 μL of CCK-8 was added synchronously thereto. […] The optimal detection time was determined according to the shade of color developed by CCK-8 (the optimal OD value for the DMSO group was about 1.0). […] The microplate reader software was opened, the detection parameters were adjusted, and the absorbance at 450 nm (OD value) was detected. […]

pIC50 | SMILES
7.14 | CC(=O)N1CCC(Nc2cc(C(=O)NC[C@H](O)CN3CCc4ccccc4C3)ncn2)CC1 [Compound A, (S)-6-((1-Acetylpiperidin-4-yl)amino)-N-(3-(3,4-dihydroisoquinolin-2(1H)-yl)-2-hydroxypropyl)pyrimidine-4-carboxamide]
8.05 | CC(=O)N1CCC(Nc2cc3c(cn2)C2(CC2)CN(C[C@H](O)CN2CCc4ccccc4C2)C3=O)CC1 [Example 1, (R)-7′-((1-acetylpiperidin-4-yl)amino)-2′-(3-(3,4-dihydroisoquinolin-2(1H)-yl)-2-hydroxypropyl)-2′,3′-dihydro-1′H-spiro[cyclopropane-1,4′-[2,6]naphthyridin]-1′-one]
7.81 | CC(=O)N1CCC(Nc2ccc3c(c2)C(=O)N(C[C@H](O)CN2CCc4ccccc4C2)CC32CC2)CC1 [Compound B, (R)-7′-((1-Acetylpiperidin-4-yl)amino)-2′-(3-(3,4-dihydroisoquinolin-2(1H)-yl)-2-hydroxypropyl)-2′,3′-dihydro-1′H-spiro[cyclopropane-1,4′-isoquinolin]-1′-one, reference compound]

SMILES | pIC50
CC(=O)N1CC2(CC(Nc3cc4c(cn3)C3(CC3)CN(C[C@H](O)CN3CCc5ccccc5C3)C4=O)C2)C1 [Example 2, (R)-7′-((2-acetyl-2-azaspiro[3.3]hept-6-yl)amino)-2′-(3-(3,4-dihydroisoquinolin-2(1H)-yl)-2-hydroxypropyl)-2′,3′-dihydro-1′H-spiro[cyclopropane-1,4′-[2,6]naphthyridin]-1-one] | 8.30
